Measured values: patent US20070129344A1, “Bicyclic 6-alkylidene-penem beta-lactamase inhibitors and beta-lactam antibiotic combination: a broad spectrum antibiotic” (priority 2005, published 2007)
Structures can show the parent of a compound that is named as a salt. Where two headings read alike, the source gives them in different places.

Assays:
Assay type in all cases: cell-based
E. coli GC 2805 (CcrA) = assay: MIC microbroth dilution; β-lactamase class B; conditions: E. coli GC 2805; Cefepime + 4 ug/ml Compound 1
Procedure: (§1) The in vitro activities of the antibiotics were determined by the microbroth dilution method as recommended by the National Committee for Clinical Laboratory Standards (NCCLS). (NCCLS. 2000. Methods for Dilution Antimicrobial Susceptibility Tests for Bacteria That Grow Aerobically; Approved Standards: M7-A5, vol. 19. National Committee for Clinical Laboratory Standards, Villanova, Pa.). Mueller-Hinton II broth (MHBII)(BBL Cockeysville, Md.), was used for the testing procedure. […]. The plates were incubated for 18-22 hours at 35° C. in ambient air.

[1] = tested on: K. pneumoniae GC 7636 TEM-1 KPC-2 SHV-12; assay: MIC microbroth dilution; β-lactamase class A, A (Cb'ase), A (ESBL); conditions: K. pneumoniae GC 7636; Cefepime + 4 ug/ml Compound 1
Procedure: as §1

[2] = tested on: K. pneumoniae GC 7822 Act 1; assay: MIC microbroth dilution; β-lactamase class C
Procedure: as §1

[3] = tested on: K. pneumoniae GC 7820 Act 1; assay: MIC microbroth dilution; β-lactamase class C
Procedure: as §1

[4] = tested on: K. pneumoniae GC 7821 DHA 1; assay: MIC microbroth dilution; β-lactamase class C
Procedure: as §1

[5] = tested on: E. cloacae GC 6991 (AmpC); assay: MIC microbroth dilution; β-lactamase class C
Procedure: as §1

[6] = tested on: K. pneumoniae GC 7824 Fox 5; assay: MIC microbroth dilution; β-lactamase class C
Procedure: as §1

[7] = tested on: E. cloacae PT 1494 Inducible AmpC; assay: MIC microbroth dilution; β-lactamase class C
Procedure: as §1

[8] = tested on: E. cloacae GC 4142 (AmpC); assay: MIC microbroth dilution; β-lactamase class C
Procedure: as §1

[9] = tested on: K. pneumoniae GC 7823 Fox 5; assay: MIC microbroth dilution; β-lactamase class C
Procedure: as §1

[10] = tested on: P. aeruginosa GC 1764 (AmpC); assay: MIC microbroth dilution; β-lactamase class C
Procedure: as §1

[11] = tested on: E. cloacae PT 967 Inducible AmpC; assay: MIC microbroth dilution; β-lactamase class C
Procedure: as §1

E. coli GC 2894 (AmpC) = assay: MIC microbroth dilution; β-lactamase class C
Procedure: as §1

[12] = tested on: C. freundii GC 4164 Inducible AmpC; assay: MIC microbroth dilution; β-lactamase class C
Procedure: as §1

[13] = tested on: S. marcescens GC 4145 Inducible AmpC; assay: MIC microbroth dilution; β-lactamase class C
Procedure: as §1

[14] = tested on: P. aeruginosa ATCC 27853 AmpC-inducable; assay: MIC microbroth dilution; β-lactamase class C
Procedure: as §1

E. coli GC 6539 CMY-2 = assay: MIC microbroth dilution; β-lactamase class C
Procedure: as §1

[15] = tested on: E. cloacae GC 1712 AmpC-inducible; assay: MIC microbroth dilution; β-lactamase class C
Procedure: as §1

[16] = tested on: A. baumannii GC 7687 AmpC; assay: MIC microbroth dilution; β-lactamase class C
Procedure: as §1

[17] = tested on: P. aeruginosa PT 9587 PTZ-R; assay: MIC microbroth dilution
Procedure: as §1

[18] = tested on: P. aeruginosa PT 8411 PTZ-R; assay: MIC microbroth dilution
Procedure: as §1

[19] = tested on: P. aeruginosa PT 9236 PTZ-R; assay: MIC microbroth dilution
Procedure: as §1

[20] = tested on: P. aeruginosa PT 8503 PTZ-R; assay: MIC microbroth dilution
Procedure: as §1

[21] = tested on: K. pneumoniae GC 7645 TEM-30 TEM-1 KPC-2 SHV-12; assay: MIC microbroth dilution; β-lactamase class A, A (Cb'ase), A (ESBL), A(IRT); conditions: K. pneumoniae GC 7645; Cefepime + 4 ug/ml Compound 1
Procedure: as §1

[22] = tested on: S. typhimurium GC 4198 SHV-1 CTX-M-5; assay: MIC microbroth dilution; β-lactamase class A, A (ESBL); conditions: S. typhimurium GC 4198; Cefepime + 4 ug/ml Compound 1
Procedure: as §1

[23] = tested on: K. oxytoca GC 7627 TEM-1 K1 KPC-2; assay: MIC microbroth dilution; β-lactamase class A, A (Cb'ase); conditions: K. oxytoca GC 7627; Cefepime + 4 ug/ml Compound 1
Procedure: as §1

[24] = tested on: A. baumannii PT 9444 PTZ-R; assay: MIC microbroth dilution; β-lactamase class not determined; conditions: A. baumannii PT 9444; Cefepime + 4 ug/ml Compound 1
Procedure: as §1

E. coli GC 2009 (TEM-10) = assay: MIC microbroth dilution; β-lactamase class A (ESBL); conditions: E. coli GC 2009; Cefepime + 4 ug/ml Compound 1
Outline: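 Susceptibility is determined by NCCLS microbroth dilution in MHBII medium, with incubation at 35° C. in ambient air for 18-22 hours.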

[25] = tested on: A. baumannii GC 7685 TEM-1; assay: MIC microbroth dilution; β-lactamase class A; conditions: A. baumannii GC 7685; Cefepime + 4 ug/ml Compound 1
Procedure: as §1

E. coli ATCC 35218 TEM-1 = assay: MIC microbroth dilution; β-lactamase class A; conditions: E. coli ATCC 35218; Cefepime + 4 ug/ml Compound 1
Procedure: as §1

[26] = tested on: E. coli GC 2295 TEM-1 + AmpC; assay: MIC microbroth dilution; β-lactamase class A, C; conditions: E. coli GC 2295; Cefepime + 4 ug/ml Compound 1
Procedure: as §1

[27] = tested on: A. baumannii GC 7692 TEM-1, AmpC; assay: MIC microbroth dilution; β-lactamase class A, C; conditions: A. baumannii GC 7692; Cefepime + 4 ug/ml Compound 1
Procedure: as §1

[28] = Enterobacter cloacae, Cefepime + 4 ug/ml Compound 2, read-out: MIC

O=C([O-])C1=CS[C@@H]2/C(=C\c3cn4c(n3)CCC4)C(=O)N12.[Na+] [Compound 1, (5R), (6Z)-6-(6,7-Dihydro-5H-pyrrolo[1,2-a]imidazol-2-ylmethylene)-7-oxo-4-thia-1-aza-bicyclo[3.2.0]hept-2-ene-2-carboxylic Acid, Sodium Salt]
MIC (E. coli GC 2805 (CcrA)): >16 mg/L
MIC [1]: 16 mg/L
MIC ([2]; Cefepime + 4 ug/ml Compound 1): 0.50 mg/L
MIC ([3]; K. pneumoniae GC 7820, Cefepime + 4 ug/ml Compound 1): 0.25 mg/L
MIC ([4]; K. pneumoniae GC 7821, Cefepime + 4 ug/ml Compound 1): 0.03 mg/L
MIC ([5]; Cefepime + 4 ug/ml Compound 1): 0.50 mg/L
MIC ([6]; Cefepime + 4 ug/ml Compound 1): 0.12 mg/L
MIC ([7]; Cefepime + 4 ug/ml Compound 1): 0.06 mg/L
MIC ([8]; Cefepime + 4 ug/ml Compound 1): 0.12 mg/L
MIC ([9]; K. pneumoniae GC 7823, Cefepime + 4 ug/ml Compound 1): 0.12 mg/L
MIC ([10]; Cefepime + 4 ug/ml Compound 1): 1 mg/L
MIC ([11]; Cefepime + 4 ug/ml Compound 1): 0.06 mg/L
MIC (E. coli GC 2894 (AmpC); Cefepime + 4 ug/ml Compound 1): 0.06 mg/L
MIC ([12]; Cefepime + 4 ug/ml Compound 1): 0.06 mg/L
MIC ([13]; Cefepime + 4 ug/ml Compound 1): 0.12 mg/L
MIC ([14]; Cefepime + 4 ug/ml Compound 1): 2 mg/L
MIC (E. coli GC 6539 CMY-2; Cefepime + 4 ug/ml Compound 1): 0.06 mg/L
MIC ([15]; Cefepime + 4 ug/ml Compound 1): 0.12 mg/L
MIC ([16]; Cefepime + 4 ug/ml Compound 1): 16 mg/L
MIC ([17]; Cefepime + 4 ug/ml Compound 1): 2 mg/L
MIC ([18]; Cefepime + 4 ug/ml Compound 1): 4 mg/L
MIC ([19]; Cefepime + 4 ug/ml Compound 1): 16 mg/L
MIC ([20]; Cefepime + 4 ug/ml Compound 1): 2 mg/L
MIC [21]: >16 mg/L
MIC [22]: 0.50 mg/L
MIC [23]: 2 mg/L
MIC [24]: 16 mg/L
MIC (E. coli GC 2009 (TEM-10)): 0.12 mg/L
MIC [25]: 16 mg/L
MIC (E. coli ATCC 35218 TEM-1): 0.03 mg/L
MIC [26]: 0.12 mg/L
MIC [27]: >16 mg/L

O=C(O)C1=CS[C@@H]2/C(=C\c3cn4c(n3)COCC4)C(=O)N12 [Compound 2, (5R), (6Z)-6-(5,6-Dihydro-8H-imidazo[2.1-c][1,4]oxazin-2-ylmethylene)-7-oxo-4-thia-1-azabicyclo[3.2.0]hept-2-ene-2-carboxylic Acid, Sodium Salt]
MIC ([2]; Klebsiella pneumoniae, GC7822ACT1, Cefepime + 4 ug/ml Compound 2, read-out: MIC): 0.5 mg/L
MIC ([3]; Klebsiella pneumoniae, GC7820ACT1, K. pneumoniae GC 7820, Cefepime + 4 ug/ml Compound 2, read-out: MIC): 0.25 mg/L
MIC ([4]; Klebsiella pneumoniae, GC7821DHA1, K. pneumoniae GC 7821, Cefepime + 4 ug/ml Compound 2, read-out: MIC): 0.03 mg/L
MIC [5, 28]: 0.5 mg/L
MIC ([6]; Klebsiella pneumoniae, GC7824FOX5, Cefepime + 4 ug/ml Compound 2, read-out: MIC): 0.25 mg/L
MIC [7, 28]: 0.06 mg/L
MIC [8, 28]: 0.12 mg/L
MIC ([9]; Klebsiella pneumoniae, GC7823FOX5, K. pneumoniae GC 7823, Cefepime + 4 ug/ml Compound 2, read-out: MIC): 0.12 mg/L
MIC ([10]; Pseudomonas aeruginosa, Cefepime + 4 ug/ml Compound 2, read-out: MIC): 1 mg/L
MIC [11, 28]: 0.12 mg/L
MIC (E. coli GC 2894 (AmpC); Escherichia coli, Cefepime + 4 ug/ml Compound 2, read-out: MIC): 0.06 mg/L
MIC ([12]; Citrobacter freundii, Cefepime + 4 ug/ml Compound 2, read-out: MIC): 0.12 mg/L
MIC ([13]; Serratia marcescens, Cefepime + 4 ug/ml Compound 2, read-out: MIC): 0.25 mg/L
MIC ([14]; Pseudomonas aeruginosa, ATCC27853, Cefepime + 4 ug/ml Compound 2, read-out: MIC): 2 mg/L
MIC (E. coli GC 6539 CMY-2; Escherichia coli, GC6539CMY2, Cefepime + 4 ug/ml Compound 2, read-out: MIC): 0.06 mg/L
MIC [15, 28]: 0.12 mg/L
MIC ([16]; Acinetobacter baumannii, GC7687AMPC, Cefepime + 4 ug/ml Compound 2, read-out: MIC): 16 mg/L
MIC ([17]; Pseudomonas aeruginosa, PT9587PTZR, Cefepime + 4 ug/ml Compound 2, read-out: MIC): 2 mg/L
MIC ([18]; Pseudomonas aeruginosa, PT8411PTZR, Cefepime + 4 ug/ml Compound 2, read-out: MIC): 4 mg/L
MIC ([19]; Pseudomonas aeruginosa, PT9236PTZR, Cefepime + 4 ug/ml Compound 2, read-out: MIC): 16 mg/L
MIC ([20]; Pseudomonas aeruginosa, PT8503PTZR, Cefepime + 4 ug/ml Compound 2, read-out: MIC): 2 mg/L
